Where a name gives a salt, the structure may show the parent alone. Read-outs that look alike come from different tables or passages of the source.
Assays:
[1] = biological target: T. brucei N-myristoyl transferase (Trypanosoma brucei brucei (strain 927/4 GUTat10.1), UniProt Q388H8); experiment: biochemical; type: biochemical; settings: read-out: IC50 (μM) NMT Enzyme
[2] = system: Trypanosome (T. brucei brucei); experiment: In-vitro antitrypanosomal efficacy assay (cell growth, resazurin); type: cell-based
Experimental: To column 12, 200 μl media was added to provide a no cells control. Plates were then incubated at 37° C. in an atmosphere of 5% CO2 for 69 hours, before the addition of 20 μl of 500 μM rezasurin solution, and a further incubation period of 4 hours. […] Concentration effect curves were fitted using non-linear regression using XLFit 4.2 and EC50 values determined.

[3] = value with no enzyme tag in the cell, taken as T. brucei NMT
[4] = value printed without enzyme tag in the NMT Enzyme column (taken as T. brucei NMT)
[5] = T. brucei brucei, blood stream form, variant 221

Sequence of T. brucei N-myristoyl transferase (Q388H8 1-446): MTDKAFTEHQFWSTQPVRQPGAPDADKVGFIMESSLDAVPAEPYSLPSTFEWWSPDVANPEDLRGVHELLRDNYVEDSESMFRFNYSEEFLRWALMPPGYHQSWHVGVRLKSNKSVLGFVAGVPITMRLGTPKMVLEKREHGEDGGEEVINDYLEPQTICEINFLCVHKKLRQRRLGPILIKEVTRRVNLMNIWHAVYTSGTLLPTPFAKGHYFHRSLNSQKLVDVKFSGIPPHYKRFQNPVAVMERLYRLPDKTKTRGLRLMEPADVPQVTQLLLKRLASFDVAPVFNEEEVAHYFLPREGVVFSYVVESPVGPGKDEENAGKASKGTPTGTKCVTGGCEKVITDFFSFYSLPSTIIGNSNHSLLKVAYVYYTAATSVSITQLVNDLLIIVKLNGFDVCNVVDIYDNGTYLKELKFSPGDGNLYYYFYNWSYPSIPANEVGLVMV

| SMILES | ED50 (μM) T. brucei ([2]; T. brucei cell growth) [µM] | ED50 (μM) T. brucei [2, 5] [µM] | further results |
| --- | --- | --- | --- |
| Cc1nn(C)c(C)c1N[S+](=O)([O-])c1c(Cl)cc(-c2ccnc(NCCN)c2)cc1Cl | >1 |  | IC50 [1, 3]: 1 µM |
| Cc1nn(C)c(C)c1N[S+](=O)([O-])c1ccc(NCCCN2CCN(Cc3ccccc3)CC2)nc1 [DD86299] | >1 |  | IC50 [1, 3]: 1 µM |
| Cc1nn(C)c(C)c1N[S+](=O)([O-])c1ccc2c(c1)OCCO2 [DDD16771] | >1 |  | IC50 [1, 4]: 4 µM |
| Cc1cc(N2CCCC2=O)cc(C)c1[S+](=O)([O-])Nc1c(C)nn(C)c1C [DDD22988] | >1 |  | IC50 [1, 4]: 8.3 µM |
| Cc1nn(C)c(C)c1N[S+](=O)([O-])c1ccccc1 [DDD48025] | >1 |  | IC50 [1, 4]: 11.8 µM |
| Cc1nn(C)c(C)c1N[S+](=O)([O-])c1cc(Cl)sc1Cl [DDD61495] | >1 |  | IC50 [1, 4]: 6.4 µM |
| COc1ccc(OC)c([S+](=O)([O-])Nc2c(C)nn(C)c2C)c1 [DDD64750] | >1 |  | IC50 [1, 4]: 30 µM |
| Cc1nn(C)c(C)c1N[S+](=O)([O-])c1ccc2c(c1)OCCCO2 [DDD71230] | >1 |  | IC50 [1, 4]: 3.5 µM |
| CC(=O)c1ccc([S+](=O)([O-])Nc2c(C)nn(C)c2C)cc1 [DDD71232] | >1 |  | IC50 [1, 4]: 42 µM |
| COc1ccc([S+](=O)([O-])Nc2c(C)nn(C)c2C)cc1Br [DDD71233] | >1 |  | IC50 [1, 4]: 2.6 µM |
| Cc1nn(C)c(C)c1N[S+](=O)([O-])c1ccc(OC(F)(F)F)cc1 [DDD71234] | >1 |  | IC50 [1, 4]: 2.7 µM |
| CC(=O)N1CCc2cc([S+](=O)([O-])Nc3c(C)nn(C)c3C)ccc21 [DDD71237] | >1 |  | IC50 [1, 4]: 8.8 µM |
| Cc1nn(C)c(C)c1N[S+](=O)([O-])c1ccc(C#N)cc1 [DDD71238] | >1 |  | IC50 [1, 4]: 32.6 µM |
| Cc1nn(C)c(C)c1N[S+](=O)([O-])c1cccc(Br)c1 [DDD71240] | >1 |  | IC50 [1, 4]: 8 µM |
| CNCc1cccc(-c2ccc([S+](=O)([O-])Nc3c(CC(C)C)nn(C)c3C)cc2)c1 [DDD99748] | 0.036 |  |  |
| Cc1nn(C)c(C)c1N(C)[S+](=O)([O-])c1c(Cl)cc(CCCN2CC(C)NC(C)C2)cc1Cl (stereo not shown) [DDD99751] | 0.021 |  |  |
| Cc1nn(C)c(C)c1N(C)[S+](=O)([O-])c1ccc(CCCCCCN(C)C)cc1 [DDD99753] | 0.406 |  |  |
| Cc1nn(C)c(C)c1N(C)[S+](=O)([O-])c1c(Cl)cc(CCCN2CCCNCC2)cc1Cl [DDD99755] | 0.002 |  |  |
| Cc1c(N[S+](=O)([O-])c2ccc(-c3cccc(C4CCNCC4)c3)cc2)c(CC(C)C)nn1C [DDD099757] | 0.061 |  |  |
| Cc1nn(C)c(C)c1N[S+](=O)([O-])c1ccc(CCCC2CCNCC2)cc1 [DDD99758] | 0.110 |  |  |
| Cc1nn(C)c(C)c1N[S+](=O)([O-])c1c(Cl)cc(CCCC2CCNCC2)cc1Cl [DDD99759] | 0.003 |  |  |
| Cc1nn(C)c(C)c1N[S+](=O)([O-])c1ccc(CCCCC2CCNCC2)cc1 [DDD99760] | 0.010 |  |  |

| SMILES | ED50 (μM) T. brucei ([2]; T. brucei cell growth) [µM] | ED50 (μM) T. brucei [2, 5] [µM] | further results |
| --- | --- | --- | --- |
| Cc1nn(C)c(C)c1NS(=O)(=O)c1ccc(C#CCCC2CCN(C)CC2)cc1 [DDD99761] | 0.240 |  |  |
| Cc1c(N(C)[S+](=O)([O-])c2ccc(-c3cccc(C4CCNCC4)c3)cc2)c(CC(C)C)nn1C [DDD99815] | 0.123 |  |  |
| Cc1c(N[S+](=O)([O-])c2ccc(-c3cccc(CN(C)C)c3F)cc2)c(CC(C)C)nn1C [DDD99816] | 0.031 |  |  |
| Cc1cc(CCCN2CCN(C)CC2)cc(C)c1[S+](=O)([O-])N(C)c1c(C)nn(C)c1C [DDD99818] | 0.047 |  |  |
| Cc1nn(C)c(C)c1N[S+](=O)([O-])c1ccc(CCCOC2CCN(C)CC2)cc1 [DDD99820] | 0.020 |  |  |
| Cc1ccc(-c2ccc([S+](=O)([O-])Nc3c(CC(C)C)nn(C)c3C)cc2)cc1CN(C)C [DDD99824] |  | 0.014 |  |
| Cc1nn(C)c(C)c1N(C)[S+](=O)([O-])c1ccc(CCCCCCCN(C)C)cc1 [DDD99825] |  | 0.054 |  |
| Cc1c(N[S+](=O)([O-])c2ccc(-c3cc(CN(C)C)ccc3Cl)cc2)c(CC(C)C)nn1C [DDD99826] |  | 0.104 |  |
| Cc1nn(C)c(C)c1N[S+](=O)([O-])c1ccc(CCCCC2CCN(C)CC2)cc1 [DDD99830] |  | 0.020 |  |
| Cc1c(N[S+](=O)([O-])c2ccc(-c3ccc(F)c(CN(C)C)c3)cc2)c(CC(C)C)nn1C [DDD99832] |  | 0.010 |  |
| Cc1nn(C)c(C)c1N(C)[S+](=O)([O-])c1c(Cl)cc(CCCCCCn2ccnc2)cc1Cl [DDD99833] |  | 0.018 |  |
| Cc1nn(C)c(C)c1N(C)[S+](=O)([O-])c1c(Cl)cc(CCCCCn2ccnc2)cc1Cl [DDD99834] |  | 0.225 |  |
| CCc1nn(C)c(CC)c1N(C)[S+](=O)([O-])c1c(Cl)cc(CCCN2CCN(C)CC2)cc1Cl [DDD99836] |  | 0.013 |  |
| Cc1nn(C)c(C)c1N(C)[S+](=O)([O-])c1ccc(CCCCCCCn2ccnc2)cc1 [DDD99838] |  | >1 |  |
| Cc1nn(C)c(C)c1N(C(F)F)[S+](=O)([O-])c1c(Cl)cc(CCCN2CCN(C)CC2)cc1Cl [DDD100086] |  | 0.012 |  |
| CCN(c1c(C)nn(C)c1C)[S+](=O)([O-])c1c(Cl)cc(CCCC2CCN(C)CC2)cc1Cl [DDD100088] |  | 0.003 |  |
| CCN(c1c(C)nn(C)c1C)[S+](=O)([O-])c1c(Cl)cc(CCCC2CCNCC2)cc1Cl [DDD100091] |  | 0.004 |  |
| Cc1nn(C)c(C)c1N(C)[S+](=O)([O-])c1ccc(CCCCCCCCN(C)C)cc1 [DDD100093] |  | 0.106 |  |
| Cc1nn(C)c(C)c1N(C(F)F)[S+](=O)([O-])c1c(Cl)cc(CCCC2CCNCC2)cc1Cl [DDD100096, 2,6-Dichloro-N-(difluoromethyl)-4-(3-(piperidin-4-yl)propyl)-N-(1,3,5-trimethyl-4H-pyrazol-4-yl)benzenesulfonamide hydrochloride salt] |  |  | ED50 (μM) T. brucei [2]: 0.003 µM |
| Cc1c(N[S+](=O)([O-])c2ccc(-c3ccc(OC(F)(F)F)c(CN(C)C)c3)cc2)c(CC(C)C)nn1C [DDD100140] |  | >1 |  |
| Cc1nn(C)c(C)c1N(CC(F)F)[S+](=O)([O-])c1c(Cl)cc(CCCN2CCCNCC2)cc1Cl [DDD100142] |  | 0.014 |  |
| Cc1c(N[S+](=O)([O-])c2ccc(-c3ccc(Cl)c(CN(C)C)c3)cc2)c(CC(C)C)nn1C [DDD100143] |  | 0.017 |  |

| SMILES | ED50 (μM) T. brucei ([2]; T. brucei cell growth) [µM] | ED50 (μM) T. brucei [2, 5] [µM] | further results |
| --- | --- | --- | --- |
| Cc1nn(C)c(C)c1N(CC(F)F)[S+](=O)([O-])c1c(Cl)cc(CCCC2CCNCC2)cc1Cl [DDD100145] |  | 0.02 |  |
| Cc1nn(C)c(C)c1N(CC(F)(F)F)[S+](=O)([O-])c1c(Cl)cc(CCCC2CCNCC2)cc1Cl [DDD100151] |  | 0.034 |  |
| Cc1nn(C)c(C)c1N(CC(F)(F)F)[S+](=O)([O-])c1c(Cl)cc(CCCN2CCCN(C)CC2)cc1Cl [DDD100157] |  | 0.014 |  |
| Cc1nn(C)c(C)c1N(CC(F)F)[S+](=O)([O-])c1c(Cl)cc(CCCCC2CCN(C)CC2)cc1Cl [DDD100159] |  | 0.009 |  |
| Cc1nn(C)c(C)c1N(CC(F)F)[S+](=O)([O-])c1c(Cl)cc(CCCC2CCN(C)CC2)cc1Cl [DDD100160] |  | 0.013 |  |
| Cc1nn(C)c(C)c1N(CC(F)F)[S+](=O)([O-])c1c(Cl)cc(CCCOC2CCN(C)CC2)cc1Cl [DDD100161] |  | 0.006 |  |
| Cc1nn(C)c(C)c1N(C(F)F)[S+](=O)([O-])c1c(Cl)cc(CCCN2CCCN(C)CC2)cc1Cl [DDD100164] |  | 0.001 |  |
| Cc1nn(C)c(C)c1N(CC(F)(F)F)[S+](=O)([O-])c1c(Cl)cc(CCCCC2CCN(C)CC2)cc1Cl [DDD100165] |  | 0.020 |  |
| Cc1nn(C)c(C)c1N(C(F)F)[S+](=O)([O-])c1c(Cl)cc(CCCN2CCCNCC2)cc1Cl [DDD100166] |  | 0.002 |  |
| Cc1nn(C)c(C)c1N(CC(F)(F)F)[S+](=O)([O-])c1c(Cl)cc(CCCCC2CCNCC2)cc1Cl [DDD100167] |  | 0.014 |  |
| Cc1c(N[S+](=O)([O-])c2ccc(-c3cccc(CN4[C@@H](C)CC[C@@H]4C)c3)cc2)c(CC(C)C)nn1C [DDD100790] |  | 0.269 |  |
| CCc1nccn1CCCCCCc1cc(Cl)c([S+](=O)([O-])N(c2c(C)nn(C)c2C)C(F)F)c(Cl)c1 [DDD100794] |  | 0.160 |  |
| Cc1nn(C)c(C)c1N(C(F)F)[S+](=O)([O-])c1c(Cl)cc(CCCCCCn2ccnc2C)cc1Cl [DDD100795] |  | 0.005 |  |
| Cc1nn(C)c(C)c1N(CC(F)F)[S+](=O)([O-])c1c(Cl)cc(CCCN2CCCN(C)CC2)cc1Cl [DDD100802] |  | 0.004 |  |
| Cc1nn(C)c(C)c1N(CC(F)(F)F)[S+](=O)([O-])c1c(Cl)cc(CCCOC2CCN(C)CC2)cc1Cl [DDD100803] |  | 0.008 |  |
| Cc1nn(C)c(C)c1N(C(F)F)[S+](=O)([O-])c1c(Cl)cc(Br)cc1Cl [DDD100805, 4-bromo-2,6-dichloro-N-(difluoromethyl)-N-(1,3,5-trimethyl-1H-pyrazol-4-yl)benzenesulfonamide] |  | >1 |  |
| Cc1c(N[S+](=O)([O-])c2ccc(-c3cccc(C(C)(C)N)c3)cc2)c(CC(C)C)nn1C [DDD100870] |  | 0.013 |  |
| Cc1nn(C)c(C)c1N(C(F)F)[S+](=O)([O-])c1c(Cl)cc(CCCOC2CN3CCC2CC3)cc1Cl (stereo not shown) [DDD100872] |  | 0.002 |  |
| Cc1c(N(C(F)F)[S+](=O)([O-])c2c(Cl)cc(-c3ccnc(N4CCNCC4)c3)cc2Cl)c(CC(C)C)nn1C [DDD100886] |  | 0.004 |  |
| Cc1nn(C)c(C)c1N(C(F)F)[S+](=O)([O-])c1ccc(-c2ccnc(N3CCNCC3)c2)cc1 [DDD100888] |  | 0.003 |  |
| Cc1nn(C)c(C)c1N(C(F)F)[S+](=O)([O-])c1ccc(-c2cccc(C3CCNCC3)c2)cc1 [DDD100891] |  | 0.129 |  |
